Data as given in PMC10901950, “Neuroprotective and Anti-inflammatory Effects of Rubiscolin-6 Analogs with Proline Surrogates in Position 2” (Neurochemical Research, 2023).
Ends that are not written are not given here.

Tests used:
[1] = tested on: SH-SY5Y cells; experiment: Cytotoxicity on SH-SY5Y cells (MTT); assay type: cell-based, human; conditions: 10 µM, 24 h
Protocol: The neuroprotective experiments were performed in an in vitro model of a human neuroblastoma cell line (SH-SY5Y) obtained from the German Collection of Microorganisms and Cell Cultures GmbH (DSMZ) Bank (ACC 209). Cells were cultured in Dulbecco’s Modified Eagle’s Medium: Nutrient Mixture F12 (DMEM:F12) supplemented with 1% antibiotic/antimycotic (Amphotericin B, Penicillin and Streptomycin) (Biowest, Nuaillé, France) and 10% (v/v) Fetal Bovine Serum (FBS) (Biowest, Riverside, MO, USA). The anti-inflammatory experiments were performed in an in vitro model of mouse macrophage-like RAW 264.7 cells, purchased from American Type Culture Collection (ATCC, Manassas, VA, USA). Cells were maintained in DMEM medium (Gibco™, Grand Island, NY) and supplemented with 10% bovine calf serum (BCS) (Gibco™, Grand Island, NY) and 1% penicillin–streptomycin (Sigma-Aldrich, St. Louis, MO, USA). Cell cultures were kept at 37 °C in 5% CO2/humidified air.
Cells were incubated with peptides (0.1–10 µM) for 24 h to assess their cytotoxic activity. […] The resulting absorbance was read in a microplate reader (Biotek, Epoch/2 microplate reader, Winooski, VT, USA) at 570 nm.
Cell metabolic activity (cytotoxicity) was calculated as the percentage of the value obtained for cells incubated with compounds compared to control cells treated with the medium.

[2] = tested on: RAW 264.7 cells; experiment: Intracellular ROS generation in RAW 264.7 cells (not stimulated); assay type: cell-based, mouse; conditions: 0.1-10 µM, 24 h, DCFH-DA, unstimulated cells
Protocol: The detection of ROS generated in injured cells was evaluated using the 5(6)-carboxy-2ʹ,7ʹ-dichlorofluorescein diacetate (carboxy-H2DCFDA) reagent (Invitrogen, Bleiswijk, Netherlands). After incubation, cells were washed with ice-cold Phosphate-Buffer Saline (PBS). Then, the carboxyl-H2DCFDA (100 µL, 20 µM) reagent was added and incubated for 1 h at 37 °C. Finally, the fluorescence intensity was measured at wavelengths of […], and ROS levels were presented in percentage of control (non-treated cells).

Substance	SH-SY5Y cell viability (cytotoxicity) [1]	effect on intracellular ROS levels [2]
YPLDLF-NH2 [analog 6, Tyr-Pro-Leu-Asp-Leu-Phe-NH2]	significantly decreased	–
YPLDLF [R-6, rubiscolin-6]	–	did not affect
